In patent publication US20240285571A1, “METHODS OF TREATING BONE INFECTIONS” (MICROBION CORPORATION, priority 2020, published 2024):
Values after ≈ are worked out from the molar mass of the structure shown.

Tests used:
[1] = test system: E. coli; settings: E. coli MMX 102 (ATCC 25922); cited from earlier work
[2] = test system: non-speciated Corynebacterium; experiment: MIC of baseline clinical isolates (Example 8); assay type: cell-based; settings: Corynebacterium non-speciated baseline isolates (N′ = 2), central laboratory, mITT
In short: (§1)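 MIC values reflect CLSI susceptibility testing of MBN-101 (BisEDT) on baseline clinical isolates. These were recovered at a central lab from bone, tissue, swab and sinus tract samples of the infected index site.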

[3] = test system: Corynebacterium jeikeium; experiment: MIC of baseline clinical isolates (Example 8); assay type: cell-based; settings: Corynebacterium jeikeium baseline isolates (N′ = 2), central laboratory, mITT
In short: as §1

[4] = test system: S. aureus (MRSA, MSSA); experiment: MIC of baseline clinical isolates (Example 8); assay type: cell-based; settings: Staphylococcus aureus, MRSA baseline isolates (N′ = 4), central laboratory, mITT
In short: (§2)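 Clinical microbiology is assessed at Day 1 and again whenever the index site undergoes surgery. Bone, adjacent tissue and swabs from deep and superficial locations are sampled, and a parallel set goes to the local site laboratory.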

[5] = test system: S. epidermidis; experiment: MIC of baseline clinical isolates (Example 8); assay type: cell-based; settings: Staphylococcus epidermidis baseline isolates (N′ = 5), central laboratory, mITT
In short: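 Sampling Day 1 plus any subsequent index-site surgery; sources: infected bone/peri-implant tissue, deep swabs, superficial tissue/wound closure/sinus tract. Parallel sets to local site lab for treatment guidance.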

[6] = test system: Staphylococcus pasteuri; experiment: MIC of baseline clinical isolates (Example 8); assay type: cell-based; settings: Staphylococcus pasteuri baseline isolates (N′ = 1), central laboratory, mITT
In short: as §2

[7] = test system: Staphylococcus arlettae; experiment: MIC of baseline clinical isolates (Example 8); assay type: cell-based; settings: Staphylococcus arlettae baseline isolates (N′ = 1), central laboratory, mITT
In short: as §2

[8] = test system: Staphylococcus hominis; experiment: MIC of baseline clinical isolates (Example 8); assay type: cell-based; settings: Staphylococcus hominis baseline isolates (N′ = 1), central laboratory, mITT
In short: as §2

[9] = test system: Staphylococcus haemolyticus; experiment: MIC of baseline clinical isolates (Example 8); assay type: cell-based; settings: Staphylococcus haemolyticus baseline isolates (N′ = 1), central laboratory, mITT
In short: as §2

[10] = test system: Staphylococcus lugdunensis; experiment: MIC of baseline clinical isolates (Example 8); assay type: cell-based; settings: Staphylococcus lugdunensis baseline isolates (N′ = 3), central laboratory, mITT
In short: as §2

[11] = test system: B. fragilis; experiment: Agar dilution MIC, anaerobes (Example 5); assay type: cell-based; settings: Bacteroides fragilis, ATCC25285
[12] = test system: non-speciated Anaerococcus; experiment: MIC of baseline clinical isolates (Example 8); assay type: cell-based; settings: Anaerococcus non-speciated baseline isolates (N′ = 1), central laboratory, mITT
In short: as §2

[13] = test system: Peptoniphilus gorbachii; experiment: MIC of baseline clinical isolates (Example 8); assay type: cell-based; settings: Peptoniphilus gorbachii baseline isolates (N′ = 1), central laboratory, mITT
In short: as §2

[14] = test system: Cutibacterium [Propionibacterium] acnes; experiment: MIC of baseline clinical isolates (Example 8); assay type: cell-based; settings: Cutibacterium (Proprionibacterium) acnes baseline isolates (N′ = 3), central laboratory, mITT
In short: as §2

[15] = test system: F. magna; experiment: MIC of baseline clinical isolates (Example 8); assay type: cell-based; settings: Finegoldia magna baseline isolates (N′ = 4), central laboratory, mITT
In short: as §2

[16] = test system: Actinomyces turicensis; experiment: MIC of baseline clinical isolates (Example 8); assay type: cell-based; settings: Actinomyces turicensis baseline isolates (N′ = 1), central laboratory, mITT
In short: as §2

[17] = test system: Anaerococcus murdochii; experiment: MIC of baseline clinical isolates (Example 8); assay type: cell-based; settings: Anaerococcus murdochii baseline isolates (N′ = 1), central laboratory, mITT
In short: as §2

[18] = test system: Clostridium sphenoides; experiment: MIC of baseline clinical isolates (Example 8); assay type: cell-based; settings: Clostridium sphenoides baseline isolates (N′ = 1), central laboratory, mITT
In short: as §2

[19] = test system: S. aureus ATCC 29213; settings: per CLSI M100-S24 or provided by Microbion; cited from earlier work

CC(C)(O/N=C(\C(=O)N[C@@H]1C(=O)N2C(C(=O)[O-])=C(C[n+]3ccccc3)CS[C@H]12)c1csc(N)n1)C(=O)O [Ceftazidime]
CLSI QC range of MIC [1]: (0.06-0.5) μg/mL

C[C@H]1COc2c(N3CCN(C)CC3)c(F)cc3c(=O)c(C(=O)O)cn1c23 [Levofloxacin]
MIC [2]: 0.18 µg/mL
n (% resistant) [2]: 0 (0.0) n (%)
MIC [3]: 0.18 µg/mL
n (% resistant) [3]: 0 (0.0) n (%)
MIC [4]: 8 µg/mL
n (% resistant) [4]: 4 (100.0) n (%)
MIC [5]: 2.52 µg/mL
n (% resistant) [5]: 2 (40.0) n (%)
MIC [6]: 0.25 µg/mL
n (% resistant) [6]: 0 (0.0) n (%)
MIC [7]: 0.5 µg/mL
n (% resistant) [7]: 0 (0.0) n (%)
MIC [8]: 8 µg/mL
n (% resistant) [8]: 1 (100.0) n (%)
MIC [9]: 8 µg/mL
n (% resistant) [9]: 1 (100.0) n (%)
MIC [10]: 0.92 µg/mL
n (% resistant) [10]: 0 (0.0) n (%)

OCC(S)CS.[Bi] (stereo not drawn) [MB-2B, bismuth-2,3-dimercaptopropanol]
MIC [11]: 8 µg/mL

CCC[C@@H]1C[C@@H](C(=O)N[C@@H]([C@H]2O[C@H](SC)[C@H](O)[C@@H](O)[C@H]2O)[C@H](C)Cl)N(C)C1 [CLI]
Mean MIC [2]: 1.06 µg/mL
n (% resistant) [2]: 1 (50.0) n (%)
Mean MIC [3]: 2.00 µg/mL
n (% resistant) [3]: 2 (100.0) n (%)
Mean MIC [12]: 0.25 µg/mL
n (% resistant) [12]: 0 (0.0) n (%)
Mean MIC [4]: 4.16 µg/mL
n (% resistant) [4]: 1 (25.0) n (%)
Mean MIC [13]: 8.00 µg/mL
n (% resistant) [13]: 1 (100.0) n (%)
Mean MIC [14]: 0.25 µg/mL
n (% resistant) [14]: 0 (0.0) n (%)
Mean MIC [5]: 3.66 µg/mL
n (% resistant) [5]: 1 (20.0) n (%)
Mean MIC [15]: 4.38 µg/mL
n (% resistant) [15]: 2 (50.0) n (%)
Mean MIC [16]: 0.25 µg/mL
n (% resistant) [16]: 0 (0.0) n (%)
Mean MIC [6]: 1.00 µg/mL
n (% resistant) [6]: 1 (100.0) n (%)
Mean MIC [7]: 0.25 µg/mL
n (% resistant) [7]: 0 (0.0) n (%)
Mean MIC [17]: 8.00 µg/mL
n (% resistant) [17]: 1 (100.0) n (%)
Mean MIC [8]: 0.12 µg/mL
n (% resistant) [8]: 0 (0.0) n (%)
Mean MIC [9]: 8.00 µg/mL
n (% resistant) [9]: 1 (100.0) n (%)
Mean MIC [10]: 0.03 µg/mL
n (% resistant) [10]: 0 (0.0) n (%)
Mean MIC [18]: 8.00 µg/mL
n (% resistant) [18]: 1 (100.0) n (%)

C[C@@H](O)[C@H]1C(=O)N2C(C(=O)O)=C(S[C@@H]3CN[C@H](C(=O)N(C)C)C3)[C@H](C)[C@H]12 [Meropenem]
MIC [12]: 0.25 µg/mL
n (% resistant) [12]: 0 (0.0) n (%)
MIC [13]: 0.06 µg/mL
n (% resistant) [13]: 0 (0.0) n (%)
MIC [14]: 0.06 µg/mL
n (% resistant) [14]: 0 (0.0) n (%)
MIC [15]: 0.06 µg/mL
n (% resistant) [15]: 0 (0.0) n (%)
n (% resistant) [16]: 0 (0.0) n (%)
MIC ([16]; Schaalia turicensis): 0.25 µg/mL
MIC [17]: 0.06 µg/mL
n (% resistant) [17]: 0 (0.0) n (%)
n (% resistant) [18]: 0 (0.0) n (%)
MIC ([18]; Lacrimispora sphenoides): 2 µg/mL
CLSI QC range of MIC [1]: (0.008-0.06) μg/mL

NCC[C@H](O)C(=O)N[C@@H]1C[C@H](N)[C@@H](O[C@H]2O[C@H](CN)[C@@H](O)[C@H](O)[C@H]2O)[C@H](O)[C@H]1O[C@H]1O[C@H](CO)[C@@H](O)[C@H](N)[C@H]1O [Amikacin]
MIC, acceptable range [19]: 1 to 4 µg/mL
MIC, expected results [19]: 2 µg/mL (≈ 3.42 µM)

CC(S)C(C)S.[Bi] (stereo not drawn) [MB-6, bismuth-2,3-butanedithiol]
MIC [11]: 1 µg/mL
MIC, acceptable range [19]: 0.12 to 0.5 µg/mL
MIC, expected results [19]: 0.25 µg/mL
